From US9283280B2, “Compositions for drug administration” (Aegis Therapeutics, LLC, priority 2008, dated 2016)

Assays:
[1] = Intranasal triptans with alkylsaccharide in rats, plasma levels by HPLC; type: in vivo;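 also: rats in groups of eight given 20 µL into one nostril, dose expressed as triptan free base, Cmax and Tmax read from plasma concentration–time curves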
Procedure: Each set of drug solutions is administered to six groups of eight rats each by 20 uL instillation to a single nare of each animal. […] After the last blood sample is collected each animal is cuthanizcd with CO2. After blood collection, plasma is immediately prepared from each blood sample using lithium/heparin as the anticoagulant. Plasma samples are stored at −70° C. until analyzed. […] The observed Tmax values from each plot is determined by inspection of the concentration vs time plots and recorded as shown in Table XII. The doses designated in this table reflect amounts of triptan free base in each case.

blood D-glucose [2] = assay: Insulin eye drops with absorption enhancer in xylazine/ketamine-anesthetized hyperglycemic rats, blood D-glucose; type: in vivo, rat
blood D-glucose [3] = assay: Glucagon eye drops with surfactant in rats, elevation of blood D-glucose; settings: for Blood Glucose Concentration: glucagon eye drops + 0.5% surfactant added after 120 min
Procedure: Glucagon absorption from the eye was measured in rats given eye drops containing various surfactants plus glucagon (30 μg) (Eli Lilly, Indianapolis, Ind.) by monitoring an elevation in blood D-glucose levels. In these experiments, rats were anesthetized with sodium pentobarbital rather than xylazine/ketamin.
Paired animals that receive eye drops containing the surfactant alone, or glucagon alone, were compared to animals receiving eye drops with the surfactant plus glucagon.

[4] = Naratriptan 0.22 mg/kg intranasal, alkylsaccharide 0.02%
[5] = Naratriptan 0.22 mg/kg intranasal, alkylsaccharide 0.05%
[6] = Naratriptan 0.22 mg/kg intranasal, alkylsaccharide 0.1%
[7] = Naratriptan 0.22 mg/kg intranasal, alkylsaccharide 0.5%
[8] = Naratriptan 0.22 mg/kg intranasal, alkylsaccharide 2%
[9] = Sumatriptan 6.2 mg/kg intranasal, alkylsaccharide 0.02%
[10] = Sumatriptan 6.2 mg/kg intranasal, alkylsaccharide 0.05%
[11] = Sumatriptan 6.2 mg/kg intranasal, alkylsaccharide 0.1%
[12] = Sumatriptan 6.2 mg/kg intranasal, alkylsaccharide 0.5%
[13] = Sumatriptan 6.2 mg/kg intranasal, alkylsaccharide 2%

CCCCCCCCCCO[C@@H]1O[C@H](CO)[C@@H](O[C@H]2O[C@H](CO)[C@@H](O)[C@H](O)[C@H]2O)[C@H](O)[C@H]1O [decyl maltoside, decyl-β-D-maltoside]
Ratio Cmax(alkylsacch)/Cmax(No alkylsacch) [1, 4]: ≦1.5
Tmax [1, 4]: ~1 to 2 h
Ratio Cmax(alkylsacch)/Cmax(No alkylsacch) [1, 5]: ≦1.5
Tmax [1, 5]: ~1 to 2 h
Ratio Cmax(alkylsacch)/Cmax(No alkylsacch) [1, 6]: ≧1.5
Tmax [1, 6]: ~1 to 2 h
Ratio Cmax(alkylsacch)/Cmax(No alkylsacch) [1, 7]: ≧1.5
Tmax [1, 7]: ~0.083 to 0.25 h
Ratio Cmax(alkylsacch)/Cmax(No alkylsacch) [1, 8]: ≧1.5
Tmax [1, 8]: ~0.083 to 0.25 h
Tmax ([1]; Rizatriptan […] intranasal, alkylsaccharide 0.02%): ~1 to 2 h
Tmax ([1]; Rizatriptan […] intranasal, alkylsaccharide 0.05%): ~1 to 2 h
Tmax ([1]; Rizatriptan […] intranasal, alkylsaccharide 0.1%): ~1 to 2 h
Tmax ([1]; Rizatriptan […] intranasal, alkylsaccharide 0.5%): ~0.083 to 0.25 h
Tmax ([1]; Rizatriptan […] intranasal, alkylsaccharide 2%): ~0.083 to 0.25 h
Ratio Cmax(alkylsacch)/Cmax(No alkylsacch) [1, 9]: ≦1.5
Tmax [1, 9]: ~1 to 2 h
Ratio Cmax(alkylsacch)/Cmax(No alkylsacch) [1, 10]: ≦1.5
Tmax [1, 10]: ~1 to 2 h
Ratio Cmax(alkylsacch)/Cmax(No alkylsacch) [1, 11]: ≧1.5
Tmax [1, 11]: ~1 to 2 h
Ratio Cmax(alkylsacch)/Cmax(No alkylsacch) [1, 12]: ≧1.5
Tmax [1, 12]: ~0.083 to 0.25 h
Ratio Cmax(alkylsacch)/Cmax(No alkylsacch) [1, 13]: ≧1.5
Tmax [1, 13]: ~0.083 to 0.25 h
Blood Glucose Concentration (blood D-glucose [2]; 0.5% surfactant, time −10 min, before insulin eye drops): 287 mg/dL
Blood Glucose Concentration (blood D-glucose [2]; 0.5% surfactant, time −20 min, before insulin eye drops): 249 mg/dL
hypoglycemic effect / insulin absorption enhancement (blood D-glucose [2]; eye drops 0.2% insulin + 0.5% enhancer): prompt and sustained fall in blood glucose levels
Blood Glucose Concentration (blood D-glucose [2]; insulin eye drops + 0.5% surfactant, time 0 min): 337 mg/dL
Blood Glucose Concentration (blood D-glucose [2]; insulin eye drops + 0.5% surfactant, time 10 min): 304 mg/dL
Blood Glucose Concentration (blood D-glucose [2]; insulin eye drops + 0.5% surfactant, time 20 min): 292 mg/dL
Blood Glucose Concentration (blood D-glucose [2]; insulin eye drops + 0.5% surfactant, time 30 min): 221 mg/dL
Blood Glucose Concentration (blood D-glucose [2]; insulin eye drops + 0.5% surfactant, time 40 min): 164 mg/dL
Blood Glucose Concentration (blood D-glucose [2]; insulin eye drops + 0.5% surfactant, time 50 min): 138 mg/dL
Blood Glucose Concentration (blood D-glucose [2]; insulin eye drops + 0.5% surfactant, time 60 min): 114 mg/dL
Blood Glucose Concentration (blood D-glucose [2]; insulin eye drops + 0.5% surfactant, time 70 min): 104 mg/dL
Blood Glucose Concentration (blood D-glucose [2]; insulin eye drops + 0.5% surfactant, time 80 min): 110 mg/dL
Blood Glucose Concentration (blood D-glucose [2]; insulin eye drops + 0.5% surfactant, time 90 min): 120 mg/dL
Blood Glucose Concentration (blood D-glucose [2]; insulin eye drops + 0.5% surfactant, time 100 min): 92 mg/dL
Blood Glucose Concentration (blood D-glucose [2]; insulin eye drops + 0.5% surfactant, time 110 min): 81 mg/dL
Blood Glucose Concentration (blood D-glucose [2]; insulin eye drops + 0.5% surfactant, time 120 min): 87 mg/dL
absorption enhancing activity by alkyl chain length (blood D-glucose [2]; ocular insulin, concentration not given): less absorption enhancing activity
glucagon absorption / blood D-glucose values (blood D-glucose [3]; eye drops surfactant plus glucagon in rats previously treated with surfactant plus insulin eye drops): increase significantly
Blood Glucose Concentration (blood D-glucose [3]; time 130 min): 95 mg/dL
Blood Glucose Concentration (blood D-glucose [3]; time 140 min): 99 mg/dL
Blood Glucose Concentration (blood D-glucose [3]; time 150 min): 132 mg/dL
Blood Glucose Concentration (blood D-glucose [3]; time 160 min): 157 mg/dL
Blood Glucose Concentration (blood D-glucose [3]; time 170 min): 171 mg/dL
Blood Glucose Concentration (blood D-glucose [3]; time 180 min): 180 mg/dL
Blood Glucose Concentration (blood D-glucose [3]; time 190 min): 189 mg/dL
